We go through five compounds from patent US7034036B2, “Inhibitors of ABC drug transporters at the blood-brain barrier” (Pain Therapeutics, Inc., priority 2000, dated 2006).

In data set [1] the test system is PGP1a. The experiment in a line: Vanadate-sensitive PGP ATPase activity in PGP membranes. In kind it is biochemical. Conditions: for Inhibition of the ATPase associated with PGP1a: semi-quantitative assay. The method, then: The test substances were incubated in the membranes and supplemented with MgATP, with and without sodium orthovanadate present. Orthovanadate inhibits PGP by trapping MgADP in the nucleotide binding site. Thus, the ATPase activity measured in the presence of orthovanadate represents non-PGP ATPase activity and was subtracted from the activity generated without orthovanadate to yield vanadate-sensitive ATPase activity.
ATPase assays were conducted in 96-well microtiter plates. A 0.06 ml reaction mixture containing 40 μg PGP membranes, test substance, and 4 mM MgATP, in buffer containing 50 mM Tris-MES, 2 mM EGTA, 50 mM KCl, 2 mM dithiothreitol, and 5 mM sodium azide, plus organic solvent was incubated at 37° C. for 20 minutes. […] Identical reaction mixtures containing 100 μM sodium orthovanadate were assayed in parallel. The reactions were stopped by the addition of 30 μl of 10% SDS+Antifoam A. The incubations were followed with addition of 200 μl of 35 mM Ammonium Molybdate in 15 mM Zinc Acetate:10% Ascorbic Acid (1:4) and incubated for an additional 20 minutes at 37° C. Additionally, 0.06 ml aliquots of potassium phosphate standards prepared in the buffer described above, were incubated in the plates containing the test and control substances, with SDS and detection reagent added. The liberation of inorganic phosphate was detected by its absorbance at 800 nm and quantitated by comparing the absorbance to a phosphate standard curve. The concentration dependence of the PGP was analyzed for evidence of saturation of PGP-ATPase activity, and apparent kinetic parameters were calculated by non-linear regression.

Data set [2] deals with PGP1a (Homo sapiens, UniProt P08183). The experiment in a line: Biological activity of exemplary compounds (Activity 1 high affinity site, Activity 2 low affinity site). The conditions noted are these: for Activity 2: high capacity, low affinity binding site; for Activity 1: low capacity, high affinity binding site.
PGP1a (Homo sapiens, UniProt P08183), sequence (P08183 whole entry): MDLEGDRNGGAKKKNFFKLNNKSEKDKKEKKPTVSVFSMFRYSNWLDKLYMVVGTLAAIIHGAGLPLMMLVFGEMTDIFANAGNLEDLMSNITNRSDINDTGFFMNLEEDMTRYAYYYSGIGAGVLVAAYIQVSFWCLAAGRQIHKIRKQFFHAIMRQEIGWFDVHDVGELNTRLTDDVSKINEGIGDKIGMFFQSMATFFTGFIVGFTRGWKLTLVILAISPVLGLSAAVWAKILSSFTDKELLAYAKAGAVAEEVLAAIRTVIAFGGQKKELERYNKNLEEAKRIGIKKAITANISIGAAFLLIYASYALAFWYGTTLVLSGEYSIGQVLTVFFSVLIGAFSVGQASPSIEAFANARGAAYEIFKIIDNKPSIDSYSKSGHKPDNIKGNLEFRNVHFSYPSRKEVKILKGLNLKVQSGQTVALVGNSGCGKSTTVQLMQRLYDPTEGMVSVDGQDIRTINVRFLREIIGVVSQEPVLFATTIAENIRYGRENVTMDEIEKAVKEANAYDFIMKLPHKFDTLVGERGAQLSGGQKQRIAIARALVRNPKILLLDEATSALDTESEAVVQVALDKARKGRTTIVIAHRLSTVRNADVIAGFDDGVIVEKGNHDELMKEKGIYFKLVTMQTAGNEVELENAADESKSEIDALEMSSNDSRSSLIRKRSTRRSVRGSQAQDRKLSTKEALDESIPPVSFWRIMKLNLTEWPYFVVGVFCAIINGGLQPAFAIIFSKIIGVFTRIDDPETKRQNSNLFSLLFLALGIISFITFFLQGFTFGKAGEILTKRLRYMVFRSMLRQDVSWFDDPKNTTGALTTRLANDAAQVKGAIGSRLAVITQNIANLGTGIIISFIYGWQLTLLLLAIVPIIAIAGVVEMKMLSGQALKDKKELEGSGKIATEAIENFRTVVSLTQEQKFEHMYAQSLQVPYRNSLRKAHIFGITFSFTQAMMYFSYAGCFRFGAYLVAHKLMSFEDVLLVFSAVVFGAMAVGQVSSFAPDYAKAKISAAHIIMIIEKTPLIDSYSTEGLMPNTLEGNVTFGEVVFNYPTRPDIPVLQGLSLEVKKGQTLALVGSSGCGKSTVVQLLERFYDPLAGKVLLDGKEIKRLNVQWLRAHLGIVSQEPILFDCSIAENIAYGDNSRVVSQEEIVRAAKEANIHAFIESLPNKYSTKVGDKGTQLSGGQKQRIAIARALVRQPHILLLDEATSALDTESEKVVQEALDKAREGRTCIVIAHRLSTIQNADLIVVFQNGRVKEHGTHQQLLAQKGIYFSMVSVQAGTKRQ
Data set [3] deals with mice. As to the kind of experiment: Tolerance to oxycodone in mice, parallel experiments. In kind it is in vivo.
The target in the next data set is human PGP (Homo sapiens, UniProt P08183). The experiment in a line: Inhibition of PGP-mediated [3H]-digoxin transport in LLC-PK1 cell monolayers expressing human PGP cDNA (15B-J). Conditions: for % Inhibition of Digoxin Transport: 5 μM [3H]-digoxin, 90 min.
human PGP, sequence (P08183 whole entry): as above
For data set [4], the system named is mice. As to the kind of experiment: Tail flick anti-nociception, naltrexone begun at day 6 in mice dosed daily with morphine (Groups A, B). In kind it is in vivo. The conditions noted are these: for Adaptation to repeated dosing (tail flick latency, words): Group 1, morphine 3 mg/kg daily alone. The procedure: 40 male mice were randomized into 5 groups of eight. All mice were administered single 3 mg/kg morphine daily (b.i.d.), beginning on Day 1.
In a second series of experiments, 40 female mice were randomized into 5 groups of eight. All mice were administered single 3 mg/kg morphine daily (b.i.d.), beginning on Day 1.
3 mg/kg of morphine was administered as a single bolus dose to each mouse on group 1 on a daily basis. Mice in Group 2 were also administered 3 mg/kg morphine daily.
On the technique in general: Hot-plate and tail-flick tests time the reaction to a heat stimulus.

Data set [5] concerns mice. As to the kind of experiment: Tail flick anti-nociception, naltrexone given with morphine from day 1 (Groups C, D, combined analysis). The conditions noted are these: Group 1: morphine 3 mg/kg only. Details: Enhancement of Latency (tail flick) / Enhancement of Latency by Naltrexone (tail flick): unit not given here. In kind it is in vivo. The method, then: In a third series of experiments, 40 male mice were randomized into 5 groups of eight. All mice were administered single 3 mg/kg morphine daily (b.i.d.), beginning on Day 1.
In a final series of experiments, 40 female mice were randomized into 5 groups of eight. All mice were administered single 3 mg/kg morphine daily (b.i.d.), beginning on Day 1.

Where [6] appears, read: male mice, 0.1 mg/kg oxycodone plus 1 ng/kg naltrexone, 1 ng/kg nalmefene or 1 pg/kg nor-BNI.

Entries after “also recorded” stand apart in the source; their conditions may differ.

Consider `C=C1CC[C@@]2(O)[C@H]3Cc4ccc(O)c5c4[C@@]2(CCN3CC2CC2)[C@H]1O5` [Nalmefene, nalmefene], for which the “Vanadate-sensitive ATPase Activity” value worked out at 2.3 nmol/mg/min with PGP1a [1] (30 μM) and 3.2 nmol/mg/min in the data set on PGP1a [1] (100 μM). Further, the “Inhibition of the ATPase associated with PGP1a” value with PGP1a [1] is recorded as “shown to inhibit”. The “Activity 2” value at PGP1a [2] is 100 µM. Moreover, the “Activity 1” value on PGP1a [2] is given as 0.3 nM. For the same compound, in the data set on mice [3] (setting [6]), the “Development of tolerance to oxycodone” value is given as “did not develop tolerance”. Also, the “% Inhibition of Digoxin Transport” value is 5.2% at human PGP (0.0001 μM test substance); 7.2% on human PGP (0.0003 μM test substance); 2.8% on human PGP (0.001 μM test substance); 5.1% on human PGP (0.003 μM test substance); 3.9% at human PGP (0.01 μM test substance); −7.2% at human PGP (0.03 μM test substance). The results for the “% Inhibition of Digoxin Transport” value at human PGP (0.1 μM test substance), at human PGP (0.3 μM test substance) and on human PGP (1 μM test substance) were −0.3%, −5.6% and −2.6%, respectively. Moreover, the “Inhibition of digoxin transport” value on human PGP (increasing concentration between 3 and 100 μM) is “increasingly inhibited”.

As to `C=CCN1CC[C@]23c4c5ccc(O)c4O[C@H]2C(=O)CC[C@@]3(O)[C@H]1C5` [Naloxone, naloxone], the “Vanadate-sensitive ATPase Activity” value is 0.4 nmol/mg/min in the data set on PGP1a [1] (1 μM); 1.7 nmol/mg/min with PGP1a [1] (3 μM); 2 nmol/mg/min in the data set on PGP1a [1] (10 μM); 1.9 nmol/mg/min in the data set with PGP1a [1] (30 μM); 1.8 nmol/mg/min with PGP1a [1] (100 μM). The “Inhibition of the ATPase associated with PGP1a” value in the data set with PGP1a [1] is on record as “shown to inhibit; also recorded: only weakly inhibited”. Also, the “Activity 2” value at PGP1a [2] was found to be 30 µM. Moreover, the “Activity 1” value on PGP1a [2] was found to be 1.0 nM. Also, the “Ketoconazole Normalized % Inhibition of Digoxin Transport” value is given as 6.2% on human PGP (0.0001 μM nominal, normalized to 25 μM ketoconazole); 8.4% on human PGP (0.0003 μM nominal, normalized to 25 μM ketoconazole); 10% on human PGP (0.001 μM nominal, normalized to 25 μM ketoconazole); −4.5% at human PGP (0.01 μM nominal, normalized to 25 μM ketoconazole); 5.7% on human PGP (0.03 μM nominal, normalized to 25 μM ketoconazole); −2.7% on human PGP (0.1 μM nominal, normalized to 25 μM ketoconazole). Besides, the “Ketoconazole Normalized % Inhibition of Digoxin Transport” value on human PGP (1 μM nominal, normalized to 25 μM ketoconazole) is on record as 7.8%; on human PGP (nominal 0.03 μM as printed in the fourth line (measured […])) it was 5.7%. The “Inhibition of digoxin transport” value is reported as “exhibited inhibitory behavior” on human PGP (at the 30 and 100 μM concentrations); “slightly inhibited” at human PGP (concentrations below 30 μM, not concentration-dependent).

For `CN1CC[C@]23c4c5ccc(O)c4O[C@H]2[C@@H](O)C=C[C@H]3[C@H]1C5` [morphine], in the data set on mice [4] (3 mg/kg daily, by Day 5), the “Tolerance” value is given as “showed distinct tolerance”. Further, the “Adaptation to repeated dosing (tail flick latency, words)” value is listed as “show an adaptation to morphine” with mice [4] (female mice, especially from day five onwards) and “showed adaptation” with mice [4] (male mice). In addition, the “Enhancement of Latency (tail flick)” value is 7.4 in the data set on mice [5] (Table 15, combined analysis (title prints Female Mice), Day 1); 3.0 in the data set on mice [5] (Table 15, combined analysis (title prints Female Mice), Day 3); −1.2 with mice [5] (Table 15, combined analysis (title prints Female Mice), Day 5); −3.7 with mice [5] (Table 15, combined analysis (title prints Female Mice), Day 8); −3.3 in the data set with mice [5] (Table 15, combined analysis (title prints Female Mice), Day 10); 5.4 in the data set on mice [5] (female mice, Day 1). Further, the “Enhancement of Latency (tail flick)” value is listed as −0.1 in the data set with mice [5] (female mice, Day 3); −4.1 with mice [5] (female mice, Day 5); −5.0 with mice [5] (female mice, Day 7); −3.3 in the data set on mice [5] (female mice, Day 10); −5.2 in the data set on mice [5] (female mice, Day 11, single bolus 10 μg/kg naltrexone to every mouse); 9.3 with mice [5] (male mice, Day 1). Moreover, the “Enhancement of Latency (tail flick)” value was 6.2 with mice [5] (male mice, Day 3); 1.6 in the data set with mice [5] (male mice, Day 5); −2.3 in the data set on mice [5] (male mice, Day 8); −3.3 in the data set with mice [5] (male mice, Day 10); −4.3 in the data set with mice [5] (male mice, Day 12, single bolus 10 μg/kg naltrexone to every mouse).

`Oc1ccc2c3c1O[C@H]1[C@H](O)CC[C@@]4(O)[C@@H](C2)N(CC2CC2)CC[C@]314` [6-β-Naltrexol, 6-β-naltrexol]: at PGP1a [2], the “Activity 2” value is 100 µM and the “Activity 1” value is recorded as 0.1 nM.

On to `Oc1ccc2c3c1O[C@H]1c4[nH]c5c(c4C[C@@]4(O)[C@@H](C2)N(CC2CC2)CC[C@]314)C[C@@]1(O)[C@H]2Cc3ccc(O)c4c3[C@@]1(CCN2CC1CC1)[C@H]5O4` [nor-BNI, nor-binaltorphimine], for which the “Development of tolerance to oxycodone” value with mice [3] (female mice, 1 or 5 mg/kg oxycodone with 1 pg/kg, 1 ng/kg or 1 μg/kg naltrexone or 1 pg/kg nor-BNI) is “None of the mice developed tolerance”; in the data set with mice [3] (setting [6]), “did not develop tolerance”.
